For assay [1], the system named is BaF3-EGFR^del19/T790M/C797S cells. Description: BaF3 cell proliferation inhibition experiment (CCK-8). In kind it is cell-based. As to conditions: Ba/F3 EGFR-Del19/T790M/C797S, read-out: BaF3-EGFR^del19 /T790M/C797S (IC50 nM). How it is done: (§1) A. Cell line: BaF3 cells with stable overexpression of wild-type genes are named BaF3-EGFR^WT, and BaF3 cells with stable overexpression of EGFR^L858R/T790M/C797S EGFR^del19/T790M/C797S EGFR^L858R/C797S and EGFR^del19/C797S mutant genes are named BaF3-EGFR^L858R/T790M/C797S BaF3-EGFR^del19/T790M/C797S BaF3-EGFR^L858R/C797S and BaF3-EGFR^del19/C797S cells, respectively. Mediums:
(§2) a) The medium was preheated in a 37° C. water bath.
(§3) b) The cryopreservation tube was taken from the liquid nitrogen tank, quickly placed in a 37° C. water bath, and melted completely within 1 minute.
(§4) c) The cell suspension was transferred to a 15 mL centrifuge tube containing a 10 mL medium and centrifuged at 1000 rpm for 4 minutes.
(§5) d) The supernatant was discarded, the cells were resuspended in a 1 mL medium and transferred to a […] culture dish containing a 10 mL medium, 20% serum and 50 ng/mL EGF were administered to the first-generation medium, and culture was conducted in a 37° C. and 5% CO2 incubator.
(§6) b) The cells in the culture dish were blown evenly with a 5 mL pipette, and 500 μL of the cells were pipetted out to be inoculated into a new […] culture dish and cultured in a 37° C. and 5% CO2 incubator.
(§7) a) The compound to be tested (10 mM stock solution) was diluted with 100% DMSO to 1 mM, and diluted with a culture solution in a 24-well plate to prepare of a working solution of 2 μM concentration.
(§8) b) The 2 μM working solution was diluted with a triple dilution method to obtain working solutions with approximate concentrations of 2 μM, 600 nM, 200 nM, 60 nM, and 20 nM.
(§9) a) The cells at the logarithmic growth phase were centrifuged at 1000 rpm for 4 minutes, resuspended with a medium (containing 10% serum and 50 ng/mL EGF), and counted.
(§10) b) The cells were inoculated into a 96-well plate with a cell density of 4000 cells/well, and placed in a 37° C. and 5% CO2 incubator for culture for 12 hours.
(§11) a) The prepared compound was added to a 96-well plate, with 100 μL per well. The final concentrations were 1 μM, 300 nM, 100 nM, 30 nM, 10 nM, and 0 nM, and the final concentration of DMSO was 0.2%. A medium served as a blank control.
(§12) b) The cells were placed in 37° C. and 5% CO2 incubator for culture for 72 hours.
(§13) (5) Cell Viability Testing
(§14) a) The 96-well cell culture plate was taken out, and 20 μL of a CCK-8 reagent (Cell Counting Kit-8, Topscience, Catalog No. C0005) was added in the dark.
(§15) b) Mixing well was conducted on a horizontal shaking table at a room temperature at 100 rpm for 5 minutes.
(§16) c) The culture plate was placed in a 37° C. constant-temperature incubator for incubation.
(§17) The data was analyzed using GraphPad Prism 8.0 software to obtain a fitted curve of activity of the compounds. The IC50 of the compounds was fitted from nonlinear regression equation.

The subject of assay [2] is BaF3-EGFR^L858R/C797S cells. The description is as above. Format: cell-based. As to conditions: Ba/F3 EGFR-L858R, read-out: BaF3-EGFR^L858R/C797S (IC50 nM). How it is done:
as §1, §2, §3, §4, §5, §6, §7, §8, §9, §10, §11, §12, §13, §14, §15, §16, §17

Assay [3] relates to BaF3-EGFR^del19/C797S cells. The description is as above. In kind it is cell-based. As to conditions: Mus musculus, read-out: BaF3-EGFR^del19 /C797S (IC50 nM). How it is done:
as §1, §2, §3, §4, §5, §6, §7, §8, §9, §10, §11, §12, §13, §14, §15, §16, §17

The test system of assay [4] is BaF3-EGFR^WT cells. Described as above. Format: cell-based. As to conditions: Mus musculus, read-out: BaF3-EGFR^WT (IC50 nM). How it is done:
as §1, §2, §3, §4, §5, §6, §7, §8, §9, §10, §11, §12, §13, §14, §15, §16, §17

For assay [5], the target named is EGFR^L858R/T790M/C797S kinase (Homo sapiens (Human), UniProt P00533, C797S/L858R/T790M). Description: EGFR^L858R/T790M/C797S kinase inhibitory activity experiment. Format: biochemical. As to conditions: in vitro. In outline:
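Human EGFR L858R/T790M/C797S mutant preincubated 10 min with compound (10-point dilution from 1 μM), then reacted 60 min at room temperature with ATP and kinase substrate 22. Substrate conversion read by Caliper mobility shift. % inhibition normalized to no-enzyme and no-compound wells, with IC50 from variable-slope log(inhibitor) fit.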

The subject of assay [6] is BaF3-EGFR^L858R/T790M/C797S cells. Description: BaF3 cell proliferation inhibition experiment (CCK-8). Format: cell-based. As to conditions: Ba/F3 EGFR-L858R, 72 hours.
Text: BaF3 cell proliferation inhibition experiment: The compounds of the present invention have excellent inhibitory activity against the proliferation of BaF3-EGFR^L858R/T790M/C797S cells
as §1, §2, §3, §4, §5, §6, §7, §8, §9, §10, §11, §12, §13, §14, §15, §16
d) Starting from the addition of the CCK-8, the absorbance at 450 nm was read using the TECAN microplate reader at 1 hour, 2 hours, and 3 hours, respectively.
as §17

Assay [7] relates to A431 cells. Put plainly: A431 cell proliferation inhibition (SRB). In kind it is cell-based. The conditions noted are these: Homo sapiens, A-431, wild-type EGFR, 72 hours. How it is done:
A431 cell proliferation inhibition: The compounds of the present invention have good selectivity to wild-type EGFR
as §2, §3, §4, §5, §6, §7, §8, §9, §10, §11, §12, §13
a) The cell supernatant was discarded, rinsed once with 1×PBS, and fixed with 10% trichloroacetic acid for 1 hour. The trichloroacetic acid was discarded, excess trichloroacetic acid was washed off with tap water, and the 96-well plate was dried in a 60° C. oven.
b) 70 μL of an SRB stain was added to each well of the dry 96-well plate for staining at a room temperature for 30 minutes. Excess SRB stain was washed off with 1% glacial acetic acid, and the 96-well plate was dried in a 60° C. oven.
c) SRB was dissolved with 100 μL of 10 mM Tris-base solution. The absorbance was detected at 540 nm ultraviolet absorption using the microplate reader. The data was analyzed.
as §17

Where [8] appears, read: BaF3, cell proliferation, 72 hours.

Where two headings read alike, the source gives them in different places.

This is an account of results in patent publication US20250101052A1, “COMPOUND FOR EGFR KINASE INHIBITOR, COMPOSITION, AND USE THEREOF” (INNOVATION INSTITUTE FOR ARTIFICIAL INTELLIGENCE IN …, priority 2021, published 2025).

Chain of EGFR^L858R/T790M/C797S kinase (P00533 25-1210 T790M/C797S/L858R): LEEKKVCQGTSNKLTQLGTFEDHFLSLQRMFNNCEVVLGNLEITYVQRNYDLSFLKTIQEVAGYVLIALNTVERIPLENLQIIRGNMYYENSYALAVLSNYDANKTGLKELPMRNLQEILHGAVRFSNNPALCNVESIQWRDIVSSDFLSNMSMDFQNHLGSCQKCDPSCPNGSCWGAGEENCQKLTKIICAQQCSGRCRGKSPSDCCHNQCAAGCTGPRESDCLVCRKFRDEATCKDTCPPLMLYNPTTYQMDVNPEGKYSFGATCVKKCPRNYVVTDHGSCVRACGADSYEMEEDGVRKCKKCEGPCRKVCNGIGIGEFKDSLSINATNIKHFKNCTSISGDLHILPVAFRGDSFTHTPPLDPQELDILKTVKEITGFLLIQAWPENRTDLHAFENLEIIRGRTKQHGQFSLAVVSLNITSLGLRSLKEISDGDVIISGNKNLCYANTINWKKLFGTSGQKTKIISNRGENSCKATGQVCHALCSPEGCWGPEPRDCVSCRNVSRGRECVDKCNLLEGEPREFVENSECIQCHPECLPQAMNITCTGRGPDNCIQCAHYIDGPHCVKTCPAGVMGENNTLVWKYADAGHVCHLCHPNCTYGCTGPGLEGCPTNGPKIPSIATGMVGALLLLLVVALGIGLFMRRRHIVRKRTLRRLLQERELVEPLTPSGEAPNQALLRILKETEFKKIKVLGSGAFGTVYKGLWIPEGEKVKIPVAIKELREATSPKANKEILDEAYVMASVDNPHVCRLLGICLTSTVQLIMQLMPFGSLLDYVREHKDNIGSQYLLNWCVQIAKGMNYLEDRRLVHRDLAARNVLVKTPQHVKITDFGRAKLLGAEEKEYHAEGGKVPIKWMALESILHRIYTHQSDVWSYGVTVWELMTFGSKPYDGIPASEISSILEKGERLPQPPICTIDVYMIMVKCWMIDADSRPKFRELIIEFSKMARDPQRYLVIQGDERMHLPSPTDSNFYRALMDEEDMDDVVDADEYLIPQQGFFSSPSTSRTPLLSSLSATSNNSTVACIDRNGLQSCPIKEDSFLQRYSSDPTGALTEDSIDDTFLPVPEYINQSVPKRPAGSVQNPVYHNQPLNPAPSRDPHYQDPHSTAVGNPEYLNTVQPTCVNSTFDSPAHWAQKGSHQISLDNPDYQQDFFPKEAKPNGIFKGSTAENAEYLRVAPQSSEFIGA

For `C=CC(=O)Nc1cc(Nc2nccc(-c3cn(C)c4ccccc34)n2)c(OC)cc1N(C)CCN(C)C` [AZD9291, reference compound], the IC50 was 614 nM in assay [1] (72 h); greater than 1000 nM in assay [2] (72 h); greater than 1000 nM in assay [3] (BaF3, 72 h); 76.1 nM in assay [4] (BaF3, 72 h).

For `CCc1cc(Nc2ncc(Cl)c(Nc3cc(C)c(C)cc3P(C)(C)=O)n2)c(OC)cc1N1CCC(N2C[C@@H](C)N(C)[C@@H](C)C2)CC1` [Compound 50, (2-((5-chloro-2-((5-ethyl-2-methoxy-4-(4-((3S,5R)-3,4,5-trimethylpiperazin-1-yl)piperidin-1-yl)phenyl)amino)pyrimidin-4-yl)amino)-4,5-dimethylphenyl)dimethylphosphine oxide], the IC50 in assay [1] (cell proliferation, 72 hours) amounted to 186 nM; in assay [4] (setting [8]), 942 nM; in assay [5] it was 0.0707 nM.

For the compound `CCc1cc(Nc2ncc(Cl)c(Nc3ccc(C)c(C)c3P(C)(C)=O)n2)c(OC)cc1N1CCC(N2C[C@H]3CN(C)C[C@H]3C2)CC1` [Compound 52, (6-((5-Chloro-2-((5-ethyl-2-methoxy-4-(4-((3aR,6aS)-5-methyloctahydropyrrol[3,4-C]pyrrol-2(1H)-yl)piperidin-1-yl)phenyl)amino)pyrimidin-4-yl)amino)-2,3-dimethylphenyl)dimethylphosphine oxide], the IC50 in assay [1] (cell proliferation, 72 hours) worked out at 92.8 nM; in assay [4] (setting [8]), 353 nM; in assay [5], 0.0369 nM; in assay [6] it was 236 nM; in assay [7] it was 606 nM.

On to `CCc1cc(Nc2ncc(Cl)c(Nc3ccc(C)c(C)c3P(C)(C)=O)n2)c(OC)cc1N1CCC(N2CC3CC2CN3C)CC1` (stereo not drawn) [Compound 54, (6-((5-Chloro-2-((5-ethyl-2-methoxy-4-(4-(5-methyl-2,5-diazadicyclo[2.2.1]heptane-2-yl)piperidin-1-yl)phenyl)amino)pyrimidin-4-yl)amino)-2,3-dimethylphenyl)dimethylphosphine oxide], for which the IC50 in assay [2] (cell proliferation, 72 hours) worked out at 166 nM; in assay [3] (setting [8]), 193 nM; in assay [5] it was 0.201 nM.
